{"source": "BindingDB's records for doi:10.1073/pnas.90.8.3452", "about": "(The Scripps Research Institute, 1993)", "key": {"[1]": {"biological_target": "5-hydroxytryptamine receptor 5A (Rattus norvegicus, UniProt P35364)", "sequence (P35364 whole entry)": "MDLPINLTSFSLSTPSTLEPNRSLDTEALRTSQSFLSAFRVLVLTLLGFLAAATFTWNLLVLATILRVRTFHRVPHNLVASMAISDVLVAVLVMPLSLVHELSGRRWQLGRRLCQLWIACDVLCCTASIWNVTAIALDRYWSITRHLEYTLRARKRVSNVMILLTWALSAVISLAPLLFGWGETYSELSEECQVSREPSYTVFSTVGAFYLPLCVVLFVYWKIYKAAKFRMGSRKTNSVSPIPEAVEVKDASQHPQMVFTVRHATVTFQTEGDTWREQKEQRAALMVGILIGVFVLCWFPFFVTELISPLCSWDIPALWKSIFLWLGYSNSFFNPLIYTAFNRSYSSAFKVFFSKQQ"}, "[2]": {"biological_target": "5-hydroxytryptamine receptor 5B (Rattus norvegicus, UniProt P35365)", "sequence (P35365 whole entry)": "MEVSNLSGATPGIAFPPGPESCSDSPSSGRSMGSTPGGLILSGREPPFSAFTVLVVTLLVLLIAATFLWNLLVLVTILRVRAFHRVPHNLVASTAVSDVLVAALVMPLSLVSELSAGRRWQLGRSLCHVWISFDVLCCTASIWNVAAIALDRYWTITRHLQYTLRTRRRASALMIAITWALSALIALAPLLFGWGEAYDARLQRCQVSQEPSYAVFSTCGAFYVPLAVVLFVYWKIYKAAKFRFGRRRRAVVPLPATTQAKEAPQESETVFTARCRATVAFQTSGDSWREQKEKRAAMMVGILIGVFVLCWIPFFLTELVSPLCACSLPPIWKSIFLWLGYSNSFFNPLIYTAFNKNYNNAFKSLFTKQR"}}}
{"smiles": "CN1C[C@H](CNC(=O)OCc2ccccc2)C[C@@H]2c3cccc4c3c(cn4C)C[C@H]21", "note": "[METERGOLINE]", "values": [{"measurement": "Ki", "setting": "[1]", "value": 1000, "unit": "nM"}, {"measurement": "Ki", "setting": "[2]", "value": 1000, "unit": "nM"}]}
{"smiles": "CC[C@@H](CO)NC(=O)[C@@H]1C=C2c3cccc4c3c(cn4C)C[C@H]2N(C)C1", "values": [{"measurement": "Ki", "setting": "[1]", "value": 1000, "unit": "nM"}, {"measurement": "Ki", "setting": "[2]", "value": 196, "unit": "nM"}]}
{"smiles": "NCCc1c[nH]c2ccc(C(N)=O)cc12", "note": "[[3H]-5-carboxamidotryptamine]", "values": [{"measurement": "Ki", "setting": "[2]", "value": 12.6, "unit": "nM"}]}
{"smiles": "CCCN(CCC)C1CCc2cccc(O)c2C1", "note": "(stereo unspecified)", "values": [{"measurement": "Ki", "setting": "[1]", "value": 1000, "unit": "nM"}, {"measurement": "Ki", "setting": "[2]", "value": 1000, "unit": "nM"}]}
{"smiles": "COc1cc(CC(C)N)c(OC)cc1I", "note": "(stereo unspecified) [[125I]2,5-dimethoxy-4-iodoamphetamine]", "values": [{"measurement": "Ki", "setting": "[1]", "value": 1000, "unit": "nM"}, {"measurement": "Ki", "setting": "[2]", "value": 1000, "unit": "nM"}]}
{"smiles": "CSc1ccc2c(c1)C(N1CCN(C)CC1)Cc1ccccc1S2", "note": "(stereo unspecified) [methanesulfonic acid;1-methyl-4-(3-methylsulfanyl-5,6-dihydrobenzo[b][1]benzothiepin-5-yl)piperazine]", "values": [{"measurement": "Ki", "setting": "[1]", "value": 146, "unit": "nM"}]}
{"smiles": "COc1cc(N)c(Cl)cc1C(=O)NC1CN2CCC1CC2", "note": "(stereo unspecified) [ZACOPRIDE,R]", "values": [{"measurement": "Ki", "setting": "[1]", "value": 1000, "unit": "nM"}, {"measurement": "Ki", "setting": "[2]", "value": 1000, "unit": "nM"}]}
{"smiles": "CN1C[C@@H](NS(=O)(=O)N(C)C)C[C@@H]2c3cccc4c3c(cn4C)C[C@H]21", "note": "[MESULERGINE]", "values": [{"measurement": "Ki", "setting": "[1]", "value": 1000, "unit": "nM"}, {"measurement": "Ki", "setting": "[2]", "value": 1000, "unit": "nM"}]}
{"smiles": "NCCc1c[nH]c2ccc(O)cc12", "note": "[[3H]-5-HT]", "values": [{"measurement": "Ki", "setting": "[1]", "value": 1330, "unit": "nM"}]}
{"smiles": "NCCc1ccc(O)c(O)c1", "values": [{"measurement": "Ki", "setting": "[1]", "value": 1000, "unit": "nM"}, {"measurement": "Ki", "setting": "[2]", "value": 1000, "unit": "nM"}]}
{"smiles": "NCC(O)c1ccc(O)c(O)c1", "note": "(stereo not drawn) [Noradrenaline,(+)]", "values": [{"measurement": "Ki", "setting": "[1]", "value": 1000, "unit": "nM"}, {"measurement": "Ki", "setting": "[2]", "value": 1000, "unit": "nM"}]}
{"smiles": "COc1ccc2[nH]cc(CCNC(C)=O)c2c1", "values": [{"measurement": "Ki", "setting": "[1]", "value": 1000, "unit": "nM"}, {"measurement": "Ki", "setting": "[2]", "value": 1000, "unit": "nM"}]}
